Assay results: ChEMBL document CHEMBL3046075, “Synthesis and antibacterial activity of novel 7-haloanilino-8-nitrofluoroquinolone derivatives” (2012)
≈ marks a conversion by molar mass, not a printed value.

Tests used:
[1] = system: Staphylococcus aureus; assay: Antibacterial activity against Staphylococcus aureus ATCC 6538 after 24 hr by two-fold serial dilution method; assay type: functional; settings: ATCC 6538, 24 h
[2] = system: Staphylococcus aureus; assay: Antibacterial activity against resistant isolates of Staphylococcus aureus after 24 hr by two-fold serial dilution method; assay type: functional

Compound | MIC [1] [mg/L] | MIC [2] [mg/L]
O=C(O)c1cn(C2CC2)c2c([N+](=O)[O-])c(Nc3cccc(Cl)c3)c(F)cc2c1=O | 0.9 (≈ 2.15 µM) | 7 (≈ 16.8 µM)
O=C(O)c1cn(C2CC2)c2c([N+](=O)[O-])c(Nc3ccccc3Cl)c(F)cc2c1=O | 6.7 (≈ 16 µM) | 6.7 (≈ 16 µM)
O=C(O)c1cn(C2CC2)c2c([N+](=O)[O-])c(Nc3ccccc3)c(F)cc2c1=O | 11.7 (≈ 30.5 µM) | –
O=C(O)c1cn(C2CC2)c2c([N+](=O)[O-])c(Nc3ccc(Cl)cc3)c(F)cc2c1=O | 6.7 (≈ 16 µM) | 9.8 (≈ 23.5 µM)
O=C(O)c1cn(C2CC2)c2cc(N3CCNCC3)c(F)cc2c1=O [CIPROFLOXACIN] | 2.9 (≈ 8.75 µM) | 1.4 (≈ 4.23 µM)
O=C(O)c1cn(C2CC2)c2c([N+](=O)[O-])c(Nc3ccc(F)c(F)c3F)c(F)cc2c1=O | 39 (≈ 89.2 µM) | 9.8 (≈ 22.4 µM)
O=C(O)c1cn(C2CC2)c2c([N+](=O)[O-])c(Nc3ccccc3F)c(F)cc2c1=O | 106 (≈ 264 µM) | 106 (≈ 264 µM)
